This is an account of results in ChEMBL document CHEMBL5131504, “Anthraquinone derivatives as ADP-competitive inhibitors of liver pyruvate kinase” (Eur J Med Chem, 2022).

Test [1] deals with T1, Pyruvate kinase PKLR (Homo sapiens, UniProt P30613). In words: Inhibition of PKL (unknown origin) at 10 uM for 30 mins by Kinase-Glo Max reagent based luminescence assay. In general terms: Kinase-Glo reads ATP consumption through a luciferase reaction.
Target sequence in this assay (P30613 whole entry, looked up): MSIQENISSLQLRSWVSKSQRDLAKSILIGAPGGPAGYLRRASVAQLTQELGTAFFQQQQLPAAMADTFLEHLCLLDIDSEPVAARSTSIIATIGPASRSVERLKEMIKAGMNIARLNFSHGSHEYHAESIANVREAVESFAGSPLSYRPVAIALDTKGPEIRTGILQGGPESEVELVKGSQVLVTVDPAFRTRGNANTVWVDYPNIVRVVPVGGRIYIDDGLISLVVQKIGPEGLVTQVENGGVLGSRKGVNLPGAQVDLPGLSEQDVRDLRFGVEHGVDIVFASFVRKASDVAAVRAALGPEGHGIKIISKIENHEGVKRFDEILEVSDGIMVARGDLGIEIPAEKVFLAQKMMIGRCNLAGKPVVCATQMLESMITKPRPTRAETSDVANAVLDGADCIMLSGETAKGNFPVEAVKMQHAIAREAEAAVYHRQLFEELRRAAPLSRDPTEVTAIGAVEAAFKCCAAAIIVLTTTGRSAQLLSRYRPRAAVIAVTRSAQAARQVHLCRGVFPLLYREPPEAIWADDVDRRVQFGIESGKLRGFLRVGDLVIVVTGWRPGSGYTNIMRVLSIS
In test [2] the target is T1, Pyruvate kinase PKLR. Briefly: Inhibition of PKL (unknown origin) for 30 mins by Kinase-Glo Max reagent based luminescence assay.
Target sequence in this assay (P30613 whole entry): as the sequence (P30613 whole entry, looked up) above
The target of test [3] is T1, Pyruvate kinase PKLR. In words: Inhibition of PKL in human PKM2 knockout HepG2 cells at 10 uM incubated for 5 mins by Microplate reader based analysis relative to control. It counts as cell-based.
Target sequence in this assay (P30613 whole entry, looked up): as above

A word on the inhibition: it is the relative decrease from the control value, in per cent. A word on the IC50: it is the concentration needed to halve the response being measured. Low readings indicate inhibition by little substance, high ones a need for much substance.

On to `O=C(O)Cc1ccc(CNS(=O)(=O)c2cc3c(c(O)c2O)C(=O)c2ccccc2C3=O)cc1C(=O)O`, for which the inhibition against Pyruvate kinase PKLR [1] was found to be 99%. Besides, at Pyruvate kinase PKLR [2], the IC50 came out at 0.3 µM. Taken in the same sequence, the figures for `O=C(O)CCCCNS(=O)(=O)c1cc2c(c(O)c1O)C(=O)c1ccccc1C2=O` were 97% and 19 µM. For `O=C1c2ccccc2C(=O)c2cc(S(=O)(=O)O)c(O)cc21`, in that order: 95% and 3.4 µM. In the case of `O=C1c2ccccc2C(=O)c2c1cc(S(=O)(=O)O)c(O)c2O` [Alizarin Red S], the inhibition against Pyruvate kinase PKLR [3] was found to be 54%; against Pyruvate kinase PKLR [1] it was 100%. Moreover, the midpoint of inhibition on Pyruvate kinase PKLR [2], the IC50, lay at 0.2 µM. For the molecule `O=C1c2ccccc2C(=O)c2c1cc(S(=O)(=O)N[C@@H](CO)C(=O)O)c(O)c2O`, the inhibition at Pyruvate kinase PKLR [1] is 97%. The molecule further came in with an IC50 against Pyruvate kinase PKLR [2] of 0.9 µM.

With `O=C(O)CNS(=O)(=O)c1cc2c(c(O)c1O)C(=O)c1ccccc1C2=O`, the inhibition at Pyruvate kinase PKLR [1] was found to be 100%. At Pyruvate kinase PKLR [2], the IC50 is 0.2 µM. `O=C(O)CC[C@H](NC(=O)N1CCN(S(=O)(=O)c2cc3c(c(O)c2O)C(=O)c2ccccc2C3=O)CC1)C(=O)O`: the inhibition on Pyruvate kinase PKLR [1] turned out to be 99%. The molecule also displayed an IC50 against Pyruvate kinase PKLR [2] of 0.55 µM. With `O=C1c2ccccc2C(=O)c2c1ccc(O)c2O`, the inhibition at Pyruvate kinase PKLR [1] is 51%. With `O=C(O)CC(Nc1cc2c(c(O)c1O)C(=O)c1ccccc1C2=O)C(=O)O` (stereo not given), the values for the inhibition at Pyruvate kinase PKLR [3] and against Pyruvate kinase PKLR [1] were 83.5% and 90%, respectively. The molecule further gave an IC50 against Pyruvate kinase PKLR [2] of 2.5 µM.

As to `O=C(O)CNS(=O)(=O)c1cc2c(cc1O)C(=O)c1ccccc1C2=O`, the inhibition at Pyruvate kinase PKLR [3] worked out at 78.7%; against Pyruvate kinase PKLR [1], 86%. Turning to `Nc1c(S(=O)(=O)O)cc2c(c1O)C(=O)c1ccccc1C2=O`, the inhibition on Pyruvate kinase PKLR [1] came out at 77%. In the case of `O=C(O)Cc1ccc(CNc2cc3c(cc2O)C(=O)c2ccccc2C3=O)cc1C(=O)O`, the inhibition on Pyruvate kinase PKLR [3] came out at 50.2%; against Pyruvate kinase PKLR [1], 94%.

As for `COC[C@H](NS(=O)(=O)c1cc2c(c(O)c1O)C(=O)c1ccccc1C2=O)C(=O)O`, the inhibition against Pyruvate kinase PKLR [1] came out at 101%. This molecule also returned an IC50 against Pyruvate kinase PKLR [2] of 1.2 µM. Regarding `O=C(O)CC[C@H](NC(=O)C1CCN(S(=O)(=O)c2cc3c(c(O)c2O)C(=O)c2ccccc2C3=O)CC1)C(=O)O`, on Pyruvate kinase PKLR [1], the inhibition stood at 45%. Consider `O=C1c2ccccc2C(=O)c2c(O)cc(S(=O)(=O)O)cc21`, for which, at Pyruvate kinase PKLR [1], the inhibition was 65%. Further, the IC50 at Pyruvate kinase PKLR [2] amounted to 7.3 µM. On to `O=C(O)CNC(=O)CNS(=O)(=O)c1cc2c(c(O)c1O)C(=O)c1ccccc1C2=O`, for which the inhibition against Pyruvate kinase PKLR [1] came to 102%. The molecule further returned an IC50 at Pyruvate kinase PKLR [2] of 4.1 µM. Turning to `O=C(O)CC(Nc1cc2c(cc1O)C(=O)c1ccccc1C2=O)C(=O)O` (stereo not given), the inhibition against Pyruvate kinase PKLR [3] turned out to be 59.7%; against Pyruvate kinase PKLR [1], 57%. Take `O=C1c2ccccc2C(=O)c2c1cc(C(=O)N1CCNCC1)c(O)c2O`: the inhibition on Pyruvate kinase PKLR [1] turned out to be 22%. Regarding `O=C(O)CC[C@H](NC(=O)C1CCCN(S(=O)(=O)c2cc3c(c(O)c2O)C(=O)c2ccccc2C3=O)C1)C(=O)O` (stereo not given in full), at Pyruvate kinase PKLR [1], the inhibition is 94%. Inhibition against Pyruvate kinase PKLR [2] was half-maximal at 1.3 µM (IC50). Taken in the same sequence, the figures for `O=C(O)CNC(=O)CNC(=O)CNS(=O)(=O)c1cc2c(c(O)c1O)C(=O)c1ccccc1C2=O` were 92% and 0.7 µM. With `O=C(O)Cc1ccc(CNc2cc3c(c(O)c2O)C(=O)c2ccccc2C3=O)cc1`, the figures for the inhibition at Pyruvate kinase PKLR [3] and against Pyruvate kinase PKLR [1] were 82.5% and 96%, respectively. The same molecule showed an IC50 against Pyruvate kinase PKLR [2] of 3.8 µM. As to `O=C1c2ccccc2C(=O)c2c1cc(-c1ccc(O)cc1)c(O)c2O`, the inhibition against Pyruvate kinase PKLR [1] was 39%. Take `CSCCC(NS(=O)(=O)c1cc2c(c(O)c1O)C(=O)c1ccccc1C2=O)C(=O)O` (stereo not given): at Pyruvate kinase PKLR [1], the inhibition amounted to 78%. For the same molecule, the IC50 on Pyruvate kinase PKLR [2] is 1.4 µM. Regarding `CS(=O)(=O)c1cccc(-c2cc3c(c(O)c2O)C(=O)c2ccccc2C3=O)c1`, the inhibition against Pyruvate kinase PKLR [1] came out at 31%.

As to `O=C(O)Cc1ccc(CNc2cc3c(c(O)c2O)C(=O)c2ccccc2C3=O)cc1C(=O)O`, the inhibition amounted to 79.3% against Pyruvate kinase PKLR [3] and 79% at Pyruvate kinase PKLR [1]. In addition, on Pyruvate kinase PKLR [2], the IC50 is 1.3 µM.

As for `O=C1c2ccccc2C(=O)c2cc(S(=O)(=O)N3CCN(C(=O)CC(O)(C(=O)O)C(=O)O)CC3)c(O)cc21`, the inhibition against Pyruvate kinase PKLR [3] was 22.6%; against Pyruvate kinase PKLR [1] it was 63%. For `O=C(O)CC(O)(CC(=O)N1CCN(S(=O)(=O)c2cc3c(c(O)c2O)C(=O)c2ccccc2C3=O)CC1)C(=O)O` (stereo not given), on Pyruvate kinase PKLR [1], the inhibition is 100%. Also, it took 0.2 µM to reach half-maximal inhibition against Pyruvate kinase PKLR [2] (IC50). Turning to `O=C(O)Cc1ccc(CNc2cc3c(cc2O)C(=O)c2ccccc2C3=O)cc1`, the figures for the inhibition against Pyruvate kinase PKLR [3] and against Pyruvate kinase PKLR [1] were 41.1% and 76%, respectively. As to `O=C(O)c1cc2c(c(O)c1O)C(=O)c1ccccc1C2=O`, the inhibition against Pyruvate kinase PKLR [1] worked out at 94%. Also, the IC50 on Pyruvate kinase PKLR [2] came to 1.4 µM. Take `O=C1c2ccccc2C(=O)c2cc(S(=O)(=O)N3CCCC(C(=O)O)C3)c(O)cc21` (stereo not given): the inhibition at Pyruvate kinase PKLR [3] came to 40.6%; on Pyruvate kinase PKLR [1], 58%. As for `COc1c(S(=O)(=O)O)cc2c(c1OC)C(=O)c1ccccc1C2=O`, on Pyruvate kinase PKLR [1], the inhibition was 19%. Turning to `O=C1c2ccccc2C(=O)c2c1cc(S(=O)(=O)N1CCNCC1)c(O)c2O`, the inhibition against Pyruvate kinase PKLR [1] stood at 98%. The molecule also showed an IC50 at Pyruvate kinase PKLR [2] of 0.15 µM. Taken in the same sequence, the figures for `O=C(O)CCNS(=O)(=O)c1cc2c(c(O)c1O)C(=O)c1ccccc1C2=O` were 102% and 5.8 µM.

As to `O=C(O)Cc1ccc(CNC(=O)Nc2cc3c(c(O)c2O)C(=O)c2ccccc2C3=O)cc1C(=O)O`, the inhibition was 34% against Pyruvate kinase PKLR [3] and 61% against Pyruvate kinase PKLR [1]. In addition, on Pyruvate kinase PKLR [2], inhibition was half-maximal at 1.7 µM (IC50).

`O=C1c2ccccc2C(=O)c2c1cc(-c1ccc(O)c(O)c1)c(O)c2O`: the inhibition on Pyruvate kinase PKLR [1] was determined as 16%. The same measure, in the same setting: the value for `O=C1c2ccccc2C(=O)c2cc(S(=O)(=O)O)ccc21` was 45%; that for `O=C1c2ccccc2C(=O)c2c1cc(S(=O)(=O)N1CCCC(C(=O)N[C@@H](Cc3c[nH]cn3)C(=O)O)C1)c(O)c2O` (stereo not given in full) was 27%. As for `O=C(O)CNc1cc2c(cc1O)C(=O)c1ccccc1C2=O`, the inhibition stood at 82.7% at Pyruvate kinase PKLR [3] and 82% at Pyruvate kinase PKLR [1]. For the molecule `O=C(O)CC(O)(CC(=O)N1CCN(S(=O)(=O)c2cc(O)c3c(c2)C(=O)c2ccccc2C3=O)CC1)C(=O)O` (stereo not given), the inhibition against Pyruvate kinase PKLR [1] is 3%. On the same count and under the same terms, with `O=C(O)C[C@H](NC(=O)C1CCN(S(=O)(=O)c2cc3c(c(O)c2O)C(=O)c2ccccc2C3=O)CC1)C(=O)O` the figure was 35%. For the molecule `O=C(O)C[C@H](NC(=O)C1CCCN(S(=O)(=O)c2cc3c(c(O)c2O)C(=O)c2ccccc2C3=O)C1)C(=O)O` (stereo not given in full), at Pyruvate kinase PKLR [1], the inhibition amounted to 72%. Moreover, the 50% inhibitory concentration (IC50) against Pyruvate kinase PKLR [2] came out at 1.9 µM. `O=C(O)CC(O)(CC(=O)N1CCN(C(=O)c2cc3c(c(O)c2O)C(=O)c2ccccc2C3=O)CC1)C(=O)O` (stereo not given): the inhibition against Pyruvate kinase PKLR [1] is -1%. As for `O=C(O)CCCNS(=O)(=O)c1cc2c(c(O)c1O)C(=O)c1ccccc1C2=O`, the inhibition against Pyruvate kinase PKLR [1] was determined as 101%. Besides, the IC50 at Pyruvate kinase PKLR [2] amounted to 7.5 µM. On to `O=C(O)Cc1ccc(CNC(=O)N2CCN(S(=O)(=O)c3cc4c(c(O)c3O)C(=O)c3ccccc3C4=O)CC2)cc1C(=O)O`, for which the inhibition on Pyruvate kinase PKLR [1] worked out at 99%. This molecule came in with an IC50 against Pyruvate kinase PKLR [2] of 0.29 µM. As for `NS(=O)(=O)c1cccc(-c2cc3c(c(O)c2O)C(=O)c2ccccc2C3=O)c1`, the inhibition against Pyruvate kinase PKLR [1] is 66%. As to `O=C1c2ccccc2C(=O)c2c1cc(S(=O)(=O)N1CCCC(C(=O)O)C1)c(O)c2O` (stereo not given), at Pyruvate kinase PKLR [1], the inhibition is 92%. The same molecule returned an IC50 against Pyruvate kinase PKLR [2] of 0.16 µM. For `O=C1c2ccccc2C(=O)c2c1cc(S(=O)(=O)N1CCC(C(=O)O)CC1)c(O)c2O`, in that order: 87% and 4.8 µM.
